Test [1] relates to Hairy Fleabane (Conyza bonariensis). The test can be described thus: Glyphosate, metsulfuron-methyl and two additives on the control of hairy fleabane. It is filed as in vivo. Conditions: glyphosate on its own; 10-15 leaf stage. As to the method: This example included the same treatments as used in Example 11, except the treatments were carried out on a glyphosate sensitive biotype of Kleinskraalhans (Conyza bonariensis).

The subject of test [2] is Heterozygous GAT-HRA corn. The test can be described thus: Postemergence test of herbicides on corn (fresh weight, visual injury). Conditions: 3472 g ae/ha. It counts as in vivo.
Test [3] relates to parent elite stiff stalk inbred corn. The description is as above. It is filed as in vivo. The conditions noted are these: 3472 g ae/ha.
Test [4] concerns non-transformed GS3 embryos. The test can be described thus: Glyphosate kill curve. It is filed as cell-based, maize. Conditions: about 40 days culture. As to the method:
A glyphosate kill curve was established by testing non-transformed embryos response on media with different levels of glyphosate. GS3 embryos were isolated from an immature ear and placed onto media containing glyphosate at 0.0, 0.5, 1.0, and 2.0 mM. After about 40 days culture, the response of the embryos were observed and recorded. Similarly, infected GS3 embryos with the GAT construct were placed onto media containing glyphosate at 0.0, 0.5, 1.0, and 2.0 mM. After about 40 days culture, the response of the infected embryos were observed and recorded (FIG. 7).
Western or PCR analysis has confirmed that these resistant calli were transformed. Currently, GAT has performed consistently as an effective selectable marker with excellent transformation efficiency in both GS3 and introEF09B genotypes (FIG. 10 and Table 45).

Test [5] concerns non-glyphosate resistant ryegrass (70-04). The test can be described thus: Glyphosate, metsulfuron-methyl and two additives on the control of ryegrass. It is filed as in vivo. As to the method:
The example was conducted on non-glyphosate resistant ryegrass. As provided in Table 23, all treatments that included glyphosate [180 g a.i. L ha^−1 (0.5 L glyphosate (SCAT®))] plus metsulfuron-methyl (BRUSH-OFF®) (5 and 10 g ha^−1) gave 100% control of the ryegrass.

The test system of test [6] is GAT-HRA transgenic cotton plants. Kind of test: Greenhouse over-the-top herbicide spray of cotton. It is filed as in vivo, Gossypium hirsutum. The text has this: (§1) Cotton (Gossypium hirsutum) Coker 312 was transformed with a GAT polynucleotide (gat 4621) together with an Hra polynucleotide (SEQ ID NO:86) both operably linked to strong, constitutive plant viral promoters. The promoter linked to gat4621 contains a duplicated portion of the Strawberry Vein Banding Virus transcript promoter (Wang et al. Virus Genes 20: 11-17, 2000; Genbank X97304). The Hra gene was driven by a duplicated portion of the Mirabilis Mosaic Caulimovirus full-length transcript promoter (U.S. Pat. No. 6,420,547; Dey and Maiti, Transgenics 3:61-70, 1999). The transformation procedure used Agrobacterium tumefaciens containing an expression cassette with the genes to be transferred and cotyledon explant derived callus with some capacity to undergo embryogenesis. The callus was exposed to Agrobacterium for 48-72 hours. The callus was then exposed to selection for transformed cells on 50-200 μg/l chlorosulfuron and/or 50-450 μM glyphosate in solid medium. Glyphosate can also be used in a concentration range of about 5 to about 450 μM. Selection was applied until somatic embryos formed, and selection was again applied at the embryo germination step, and optionally during rooting of plantlets. Over 450 GAT-HRA transformation events were produced using selection with both chlorsulfuron and glyphosate.
(§2) Transformed cotton plants were rooted and then transferred to soil for further growth. Plants were then subjected to herbicide spray treatments in a greenhouse. […] Untransformed Coker 312 control plants were dead 2 weeks after glyphosate application. […] Plants transformed with both GAT and HRA were further subjected to an “over the top” application of the sulfonylurea herbicide rimsulfuron at a rate of 16 g active ingredient/hectare. […] In further experiments 32 g ai/ha rimsulfuron were applied to the cotton.

The test system of test [7] is Untransformed Coker 312 control plants. The test can be described thus: Greenhouse over-the-top herbicide spray of cotton. It is filed as in vivo, Gossypium hirsutum.
Excerpt: as §1, §2

Another test relates to control maize. The test can be described thus: Evaluation of herbicide tolerance, spray at V2 stage. It counts as in vivo. Conditions: postemergence; tribenuron, chlorimuron, imazapyr 200 g ai/ha; metsulfuron-methyl 35 g ai/ha.
In test [8] the test system is parent elite stiff stalk inbred corn. Kind of test: Preemergence test of ALS herbicides on corn (fresh weight, visual injury). It counts as in vivo. Conditions: 200 g/ha, fresh shoots weighed 4 weeks after treatment, mean of four replications.
A further test relates to GAT-HRA maize. The test can be described thus: Evaluation of herbicide tolerance, spray at V2 stage. It is filed as in vivo. The conditions noted are these: postemergence; tribenuron, chlorimuron, imazapyr 200 g ai/ha; metsulfuron-methyl 35 g ai/ha. As to the method:
GAT-HRA maize plants were evaluated for tolerance to glyphosate and other herbicides. One protocol used in this evaluation was as follows. At the V2 stage (Ritchie and Hanway (1982), “How a corn plant develops” Spec. Rep. 48. (Coop. Ext. Ser., Iowa State Univ., Ames, Iowa)), plant heights were measured and herbicides were applied by spray application. Ten to fourteen days after the spray application, the transgenic plants were evaluated for injury symptoms and measured for plant height again in order to determine plant growth rates.
Plants were then evaluated at various times after treatment, such as 10 or 14 days after treatment. […] Leaf samples were taken from GAT-HRA plants and used in quantitative PCR analysis and other analyses to determine the number and arrangement of copies of the GAT and HRA polynucleotides that had been integrated into the plant genome.
Other protocols for evaluation included treatment with imidazolinone herbicides, such as the commercial herbicide Lightning® (a combination of imazapyr and imazethapyr), which was applied to GAT-HRA maize at the V2 leaf stage at four times the field label rate (250 g ai/ha). […] Another protocol for evaluation included treatment with imidazolinone herbicides as well as sulfonylurea and glyphosate herbicides. In these tests, GAT-HRA maize was treated with various combinations of Lightning® (imazapyr and imazethapyr), Basis® (rimsulfuron and thifensulfuron-methyl) and WeatherMAX® (glyphosate potassium salt). These herbicides were applied at the V2 stage as follows: Lightning® at twice the field label rate (1.8 oz ai/ac (133 ml ai/ha)), Basis® at twice the field label rate (0.5 oz ai/ac (36.9 ml ai/ha)) and WeatherMax® at four times the field label rate (43 oz ai/ac). Fourteen days after the treatment application, the plants were evaluated. […] “Field label rate” refers to the application rate specified on the product label. Where the application rate for a particular situation is a range of rates, as used herein, the term “field label rate” indicates the upper end of that range. […]

In a further test the test system is GAT-HRA soybeans. Kind of test: Postemergence herbicide spray of soybeans, visual injury. It counts as in vivo. The conditions noted are these: 35 g/ha. As to the method: (§3) Young regenerated transgenic plants were sprayed with 1× glyphosate (1× rate of glyphosate is 1120 g/ha of glyphosate isopropylamine) to cull segregants. Four replications were performed for each treatment. Plants were then treated with various herbicides, including glyphosate and ALS-inhibitor herbicides.
(§4) Six soybean seeds from each variety to be assayed were planted 1 cm deep in 5.5 (13.97 cm) inch square plastic container of a synthetic growth medium. […] When possible, containers were thinned to two uniform plants. Non-transgenic lines were thinned to two uniform plants per container.
(§5) Results are expressed below in Table 11 as the mean of four replications.

Test [9] has as its system non-transgenic control soybeans. The test is described as above. It counts as in vivo. Conditions: 35 g/ha. As to the method: as §3, §4, §5

For `O=C(O)CNCP(=O)(O)O` [Glyphosate, N-phosphonomethylglycine], the “percentage printed with the plants killed” value in test [1] amounted to 12%. The “% Visual Injury” value in test [2] worked out at 10%; in test [3], 100%. In addition, in test [3] (2 weeks after treatment), the “Fresh Weight” value came to 1.0 g. In test [4] (0.5 mM glyphosate in medium), the “embryos that showed callus initiation” value is recorded as “about half”. Moreover, the callus growth in [4] (1.0 mM glyphosate in medium) and in test [4] (2.0 mM glyphosate in medium) was “very little callus growth” throughout. Moreover, the “percentage printed with the plants that died” value in [5] (0.5 L ha^−1 glyphosate (SCAT)) is recorded as 12%. Also, the “plants that eventually died” value in [5] (0.5 L ha^−1 glyphosate (SCAT)) is on record as 15 of the 16. In test [6] (1.5 lb acid equivalent per acre, 4-6 leaf stage, 14 days after application), the “GAT-HRA transgenic plants that showed no deleterious symptoms” value is “approximately 50%”. Also, the “state of control plants after application” value in [7] (1.5 lb acid equivalent per acre, 4-6 leaf stage, 2 weeks after application) is on record as “dead”.
With `COC(=O)c1ccccc1S(=O)(=O)NC(=O)Nc1nc(C)nc(OC)n1` [Metsulfuron-methyl, methyl 2-[[[[(4-methoxy-6-methyl-1,3,5-triazin-2-yl)amino]carbonyl]amino]sulfonyl]benzoate], the entries for the “damage from the treatment” value with control maize and in the test on GAT-HRA maize were “severely damaged or killed” and “no significant damage”, respectively. Besides, the “effect on the ryegrass, on its own” value in [5] (5-6 leaf stage) is reported as “did nothing accept stunt the ryegrass plants slightly”. Moreover, in [8], the “Fresh Weight” value amounted to 0.0 g.
As to `CCS(=O)(=O)c1cccnc1S(=O)(=O)NC(=O)Nc1nc(OC)cc(OC)n1` [Rimsulfuron, N-[[(4,6-dimethoxy-2-pyrimidinyl)amino]carbonyl]-3-(ethylsulfonyl)-2-pyridinesulfonamide], in test [6] (rimsulfuron 16 g active ingredient/hectare after glyphosate 1.5 lb ae/acre, 14 days after rimsulfuron, 28 days after glyphosate), the “transgenic plants that showed no deleterious symptoms from the dual herbicide application” value is reported as “approximately 35%”. For the same molecule, the “damage of untransformed plants” value in test [7] (16 g active ingredient/hectare, in the absence of any glyphosate application) is listed as “severe damage”.
Consider `COC(=O)c1ccccc1S(=O)(=O)NC(=O)N(C)c1nc(C)nc(OC)n1` [Tribenuron-methyl, methyl 2-[[[[N-(4-methoxy-6-methyl-1,3,5-triazin-2-yl)-N-methylamino]carbonyl]-amino]sulfonyl]benzoate], for which the “damage of GAT- and HRA-containing transgenic soybeans” value with GAT-HRA soybeans was “no significant damage”. The “effect on non-transgenic control soybeans” value in test [9] is “killed”.
